Values of other authors, collected in patent publication US20070208072A1, “Maleate salt of tegaserod and crystalline forms thereof” (priority 2006, published 2007).

Conditions: white to off-white crystalline powder

CCCCCNC(=N)N/N=C/c1c[nH]c2ccc(OC)cc12.O=C(O)/C=C\C(=O)O [Tegaserod maleate]
solubility in ethanol (ethanol): slightly soluble
solubility in water (water): very slightly soluble
